“And” between values parts separate entries of the source, which are not always exact repeats. Equal values may be shown once.
Legend:
HsGUS (human GUS) = biological target: T1, HsGUS (human GUS) (Homo sapiens, UniProt P08236); assay: GUS inhibition assay, hydrolysis of 4-methylumbelliferyl-β-glucuronide, HsGUS; format: biochemical; parameters: GUS activity (hydrolysis rate of MUG): unit not given here; settings: [Inhibitor 1] =200 nM
T1 construct: HsGUS was prepared as described[37]; made in house
T1 sequence (P08236 23-651): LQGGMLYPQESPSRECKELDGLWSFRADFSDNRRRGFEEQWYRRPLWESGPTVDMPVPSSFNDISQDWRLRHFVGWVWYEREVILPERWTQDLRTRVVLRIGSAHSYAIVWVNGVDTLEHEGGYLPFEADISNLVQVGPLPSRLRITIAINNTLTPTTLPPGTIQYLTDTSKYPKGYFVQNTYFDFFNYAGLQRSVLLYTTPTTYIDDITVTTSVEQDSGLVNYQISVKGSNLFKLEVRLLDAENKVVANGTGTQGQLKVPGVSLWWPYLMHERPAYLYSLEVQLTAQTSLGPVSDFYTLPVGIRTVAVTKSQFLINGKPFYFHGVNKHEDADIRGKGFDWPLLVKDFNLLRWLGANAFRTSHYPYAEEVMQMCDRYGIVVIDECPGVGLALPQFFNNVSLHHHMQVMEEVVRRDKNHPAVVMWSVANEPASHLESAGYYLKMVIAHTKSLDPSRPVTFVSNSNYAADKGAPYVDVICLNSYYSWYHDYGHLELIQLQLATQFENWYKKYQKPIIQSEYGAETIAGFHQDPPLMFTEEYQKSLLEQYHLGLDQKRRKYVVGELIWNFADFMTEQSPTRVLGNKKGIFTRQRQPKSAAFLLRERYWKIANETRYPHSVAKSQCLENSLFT

EcGUS = EcGUS (Escherichia coli, UniProt P05804); assay: Isothermal titration calorimetry, EcGUS; format: binding; settings: EcGUS, 298 K
[1] = biological target: BdGUS (Bifidobacterium dentium GUS) (Bifidobacterium dentium, UniProt D2Q7B1); assay: biochemical; parameters: GUS activity (hydrolysis rate of MUG) / 1/v: unit not given here
[2] = Tris buffer (250 mM NaCl, 20 mM Tris, pH 8.0)
[3] = phosphate buffer (250 mM NaCl, 20 mM KH2PO4, 100 mM Na2HPO4, pH 8.0)
[4] = [Inhibitor 1] = 6.25 nM, [MUG] 0.375 mM
[5] = [Inhibitor 1] = 6.25 nM, [MUG] 0.75 mM
[6] = [Inhibitor 1] = 6.25 nM, [MUG] 1.5 mM
[7] = [Inhibitor 1] = 6.25 nM, [MUG] 3 mM
[8] = [Inhibitor 1] = 12.5 nM, [MUG] 0.375 mM
[9] = [Inhibitor 1] = 12.5 nM, [MUG] 0.75 mM
[10] = [Inhibitor 1] = 12.5 nM, [MUG] 1.5 mM
[11] = [Inhibitor 1] = 12.5 nM, [MUG] 3 mM
[12] = [Inhibitor 1] = 25 nM, [MUG] 0.375 mM
[13] = [Inhibitor 1] = 25 nM, [MUG] 0.75 mM
[14] = [Inhibitor 1] = 25 nM, [MUG] 1.5 mM
[15] = [Inhibitor 1] = 25 nM, [MUG] 3 mM
[16] = [Inhibitor1] = 50 nM, [MUG] 0.375 mM
[17] = [Inhibitor1] = 50 nM, [MUG] 0.75 mM
[18] = [Inhibitor1] = 50 nM, [MUG] 1.5 mM
[19] = [Inhibitor1] = 50 nM, [MUG] 3 mM

Chain of EcGUS (P05804 whole entry): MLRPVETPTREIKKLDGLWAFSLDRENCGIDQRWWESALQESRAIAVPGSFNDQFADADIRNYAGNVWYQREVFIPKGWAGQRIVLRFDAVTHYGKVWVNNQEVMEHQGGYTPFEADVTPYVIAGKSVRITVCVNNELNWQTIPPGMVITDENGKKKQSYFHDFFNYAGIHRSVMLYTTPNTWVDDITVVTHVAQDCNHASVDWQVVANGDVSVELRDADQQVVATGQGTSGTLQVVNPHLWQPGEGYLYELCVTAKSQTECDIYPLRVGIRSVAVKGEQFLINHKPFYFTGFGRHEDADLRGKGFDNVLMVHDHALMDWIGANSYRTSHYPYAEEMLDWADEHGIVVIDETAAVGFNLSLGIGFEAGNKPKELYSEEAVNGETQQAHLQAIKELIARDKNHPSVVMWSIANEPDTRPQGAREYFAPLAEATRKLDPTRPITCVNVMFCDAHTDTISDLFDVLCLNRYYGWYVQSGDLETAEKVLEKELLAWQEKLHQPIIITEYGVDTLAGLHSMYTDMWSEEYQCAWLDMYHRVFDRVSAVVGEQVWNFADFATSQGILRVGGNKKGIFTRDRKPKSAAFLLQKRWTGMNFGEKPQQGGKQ
Chain of BdGUS (Bifidobacterium dentium GUS) (D2Q7B1 1-668): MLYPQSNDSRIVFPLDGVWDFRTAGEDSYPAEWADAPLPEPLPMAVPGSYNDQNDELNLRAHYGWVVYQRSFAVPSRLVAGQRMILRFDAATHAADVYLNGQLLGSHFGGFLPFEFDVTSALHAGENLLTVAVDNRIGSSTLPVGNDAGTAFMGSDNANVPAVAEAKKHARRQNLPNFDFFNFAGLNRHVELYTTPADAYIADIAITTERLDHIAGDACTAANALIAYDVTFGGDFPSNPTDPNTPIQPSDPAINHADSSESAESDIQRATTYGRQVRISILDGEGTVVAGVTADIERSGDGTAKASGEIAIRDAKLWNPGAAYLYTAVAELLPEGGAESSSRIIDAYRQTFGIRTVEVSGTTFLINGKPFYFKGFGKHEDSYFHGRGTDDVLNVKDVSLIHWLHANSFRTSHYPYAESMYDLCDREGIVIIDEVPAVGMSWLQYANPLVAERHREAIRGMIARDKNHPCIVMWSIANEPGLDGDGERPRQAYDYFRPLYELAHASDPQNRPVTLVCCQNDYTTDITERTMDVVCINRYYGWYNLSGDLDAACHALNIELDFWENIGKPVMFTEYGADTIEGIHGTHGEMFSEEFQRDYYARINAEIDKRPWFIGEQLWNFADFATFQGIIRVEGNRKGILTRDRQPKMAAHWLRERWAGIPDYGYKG

O=C(O)[C@H]1CNC[C@@H](O)[C@@H]1O [Inhibitor 1, Uronic isofagomine]
GUS activity (hydrolysis rate of MUG) (HsGUS (human GUS); [MUG] 0.2 mM): 887.805 and 953.041 | GUS activity (hydrolysis rate of MUG) (HsGUS (human GUS); [MUG] 0.4 mM): 1572.94 and 1681.59 | GUS activity (hydrolysis rate of MUG) (HsGUS (human GUS); [MUG] 0.6 mM): 2196.34 and 2140.47 | GUS activity (hydrolysis rate of MUG) (HsGUS (human GUS); [MUG] 0.8 mM): 2605.47 and 2684.29 | GUS activity (hydrolysis rate of MUG) (HsGUS (human GUS); [MUG] 1.2 mM): 3423.7 and 3486.94 | GUS activity (hydrolysis rate of MUG) (HsGUS (human GUS); [MUG] 1.6 mM): 4057.78 and 4000.72 | GUS activity (hydrolysis rate of MUG) (HsGUS (human GUS); [MUG] 2 mM): 4782.69 and 4439.05 | Kd (EcGUS; [2]): 20 ± 2 nM | ΔG (EcGUS; [2]): –10.63 ± 0.075 kcal/mol | —TΔS (EcGUS; [2]): –1.51 ± 0.20 kcal/mol | Kd (EcGUS; [3]): 60 ± 1 nM | ΔG (EcGUS; [3]): –9.89 ± 0.01 kcal/mol | ΔH (EcGUS; [3]): –9.48 ± 0.29 kcal/mol | —TΔS (EcGUS; [3]): –0.41 ± 0.30 kcal/mol | Ki ([1]; BdGUS): 7.4 nM | 1/v [1, 4]: 0.8126 and 0.846 and 0.7526 | GUS activity (hydrolysis rate of MUG) [1, 4]: 0.2748 and 0.264 and 0.2967 | 1/v [1, 5]: 0.5186 and 0.5024 and 0.468 | GUS activity (hydrolysis rate of MUG) [1, 5]: 0.4306 and 0.4444 and 0.4771 | 1/v [1, 6]: 0.3591 and 0.3484 and 0.3239 | GUS activity (hydrolysis rate of MUG) [1, 6]: 0.6217 and 0.6409 and 0.6893 | 1/v [1, 7]: 0.2793 and 0.2899 and 0.2702 | GUS activity (hydrolysis rate of MUG) [1, 7]: 0.7996 and 0.7703 and 0.8263 | 1/v [1, 8]: 1.155 and 1.089 and 1.043 | GUS activity (hydrolysis rate of MUG) [1, 8]: 0.1934 and 0.2051 and 0.2141 | 1/v [1, 9]: 0.6535 and 0.6591 and 0.6116 | GUS activity (hydrolysis rate of MUG) [1, 9]: 0.3417 and 0.3388 and 0.3651 | 1/v [1, 10]: 0.4306 and 0.4268 and 0.4023 | GUS activity (hydrolysis rate of MUG) [1, 10]: 0.5186 and 0.5232 and 0.555 | 1/v [1, 11]: 0.3354 and 0.3372 and 0.306 | GUS activity (hydrolysis rate of MUG) [1, 11]: 0.6657 and 0.6621 and 0.7298 | 1/v [1, 12]: 1.814 and 1.753 and 1.625 | GUS activity (hydrolysis rate of MUG) [1, 12]: 0.1231 and 0.1273 and 0.1374 | 1/v [1, 13]: 0.8901 and 1.007 and 0.9854 | GUS activity (hydrolysis rate of MUG) [1, 13]: 0.2509 and 0.2218 and 0.2266 | 1/v [1, 14]: 0.5908 and 0.5953 and 0.5748 | GUS activity (hydrolysis rate of MUG) [1, 14]: 0.3779 and 0.3751 and 0.3885 | 1/v [1, 15]: 0.423 and 0.431 and 0.4024 | GUS activity (hydrolysis rate of MUG) [1, 15]: 0.5279 and 0.5181 and 0.5549 | 1/v [1, 16]: 3.2999 and 3.135 and 3.11 | GUS activity (hydrolysis rate of MUG) [1, 16]: 0.06767 and 0.07122 and 0.07181 | 1/v [1, 17]: 1.905 and 1.744 and 1.761 | GUS activity (hydrolysis rate of MUG) [1, 17]: 0.1172 and 0.128 and 0.1268 | 1/v [1, 18]: 0.9882 and 1.034 and 0.9748 | GUS activity (hydrolysis rate of MUG) [1, 18]: 0.226 and 0.216 and 0.2291 | 1/v [1, 19]: 0.6379 and 0.6438 and 0.6305 | GUS activity (hydrolysis rate of MUG) [1, 19]: 0.35 and 0.3468 and 0.3542

Reference: article PMC7933434, “Entropy-driven binding of gut bacterial β-glucuronidase inhibitors ameliorates irinotecan-induced toxicity” (Communications Biology, 2021)
